Laboratory results reported in EP1994944A1, “Polymer conjugate compounds for the inhibition of apoptosis” (Laboratorios SALVAT, S.A., priority 2007, dated 2008).
Marks after values point to notes of the source that are not given here.

Columns and labels:
Caspase activity = assay: Caspase inhibition assay (time-dependent, Ac-DEVD-afc substrate) in cultured cells; format: cell-based; settings: Saos-2, 50 µM drug-eq., apoptosis induced by doxycyclin 2 µM, vs non-treated cells
Procedure: The time-dependent inhibition of caspase induced by the compounds described in this invention was analyzed. Cell lines were grown in the presence or absence of compounds (50 µM) at different times. Caspase activity was assayed using Saos-2 or U937 cultured cell lines and Ac-DEVD-afc (N-acetyl-Asp-Glu-Val-Asp-afc(7-amino-4-trifluoromethyl coumarin)) as substrate (20 µM). For Saos-2 cell line, apoptosis induction was carried out by the addition of doxycyclin 2 µM; in the case of U937, apoptosis was induced by doxorubicin 0.25 µM. Caspase activity was continuously monitored by the liberation of fluorescent afc using a Cytofluor 4000 fluorimeter (excitation 400 nm; emission 508 nm) for 2 hour. The effect of the compounds on the caspase activity was expressed as the percentage of inhibition in the fluorescence signal of treated cells vs the non-treated cells (control). As control is shown the activity of the previously described conjugate with diglycil linker (named as diglycil)

Cathepsin B [1] = target: T1, Cathepsin B (Homo sapiens, UniProt P07858); assay: Degradation on incubation with Cathepsin B: Mw loss and drug release profile from PGA-conjugate; format: in vitro ADME; settings: Cathepsin B (5 U), pH 6 buffer, 37°C; for 50% drug release t: determined by HPLC; for 50% Mw Loss t: determined by Size Exclusion Chromatography (SEC)
Procedure: Aqueous solutions of I.1 (1 mg/mL) were prepared, and an aliquot (100 µL) was added to a polypropylene tube and made up to 1 mL with water. The pH of the samples was adjusted to 8 with ammonium formate buffer (100 µL, 1 M, pH 8.5), and then CHCl3 (5 mL) was added. Samples were then thoroughly extracted by vortexing (3 x 10 sec). The […] layer was carefully removed and the solvent was evaporated under N2. The dry residue was dissolved in 200 µL of HPLC grade acetonitrile. In parallel the same procedure was carried out for the parent compound II.1 (using 200µL of a 1 mg/mL stock aqueous solution). Addition of 1 mL of acetonitrile to redissolve the product gave a 200 µg/mL stock from which a range of concentrations was prepared (2 to 100 µg/mL). The free amount of drug in the conjugates was determined by HPLC using a Lichrospher® C18 (150 x 3.9 mm) column. Flow rate 1 mL/min using an acetonitrile gradient in aqueous 0.1 % TFA (from 10 to 90% of acetonitrile in 25 min). The retention time was tr = 22.5 min for II.1 (λ = 220 nm) and tr = 22.0 for II.2.
Cathepsin B (5 U) was added last to a solution of 3 mg PGA or PGA-conjugate I in 1 mL of a pH 6 buffer composed by 20 mM sodium acetate, 2 mM EDTA and 5 mM DTT. Incubation was carried out at 37°C. Aliquots (150 µL) were taken at times up to 72 h, immediately frozen in liquid nitrogen, and stored frozen in the dark until assayed by HPLC (analysis of 100 µL aliquots after extraction procedure) and/or GPC (direct analysis of 50 µL aliquots). In control experiments polymers were incubated in buffer alone (without addition of cathepsin B) to assess non-enzymatic hydrolytic cleavage. In addition, free drug (0.75 mg/mL) was also incubated under same conditions and later used as the reference control. HPLC Evaluation of Released Drug (VIIIa, I.1 or I.2) The extraction method described above to determine free drug content of the conjugate samples was also used here. Mass analysis of the released compounds was carried out by MALDI TOF TOF. GPC Evaluation of Polymer Mw loss. The 50 µL aliquots were diluted up to 200 µL with buffer (PBS) and the Mw determined by GPC using PEG standards. Generally degradation profiles for biomedical polymers are obtained under constant sink conditions and the results correlated with mass loss of the polymer. Since PGA polymers are water soluble, the relative peak areas used in the GPC derived molecular weight calculations provided a suitable alternative to indicate the relative amount of the polymer that remained at each timepoint. As the polymer degraded there was a notable loss of I (PGA-conjugate) molecular weight. Therefore, the loss with time of the area under the curve (AUC) for I and PGA (XII) was considered to evaluate the rate of backbone degradation. […]

Cathepsin B [2] = target: T1, Cathepsin B; settings: reference value from Vicent MJ and Pérez-Payá, J. Med. Chem. 2006, 49, 3763-3765, cited from earlier work

| Substance | % Caspase Inhibition (Caspase activity; Time 24 h) [%] | % Caspase Inhibition (Caspase activity; Time 48 h) [%] | % Caspase Inhibition (Caspase activity; Time 72 h) [%] | 50% drug release t (Cathepsin B [1]) [h] | 50% Mw Loss t (Cathepsin B [1]) [h] | 50% drug release t (h) (Cathepsin B [2]; determined by HPLC) | 50% Mw Loss t (h) (Cathepsin B [2]; determined by SEC) |
| --- | --- | --- | --- | --- | --- | --- | --- |
| Poly-L-glutamic acid [2-(2-Amino-3-phenylpropionylamino)-N-{[({carbamoylmethyl-[2-(2,4-dichlorophenyl)ethyl]carbamoyl}methyl)-(3,3-diphenylpropyl)carbamoyl]-methyl}-N-[2-(2,4-dichlorophenyl)ethyl]-3-methylbutyramide] conjugate [I.1] | 23 | 65 | 100 | 0.7 | 5 | – | – |
| Poly-L-glutamic acid [2-Amino-4-methylpentanoic acid (1-{{[({carbamoylmethyl-[2-(2,4-dichlorophenyl)ethyl]carbamoyl}methyl)-(3,3-diphenylpropyl)carbamoyl]methyl}-[2-(2,4-dichlorophenyl)ethyl]carbamoyl}-2-methylpropyl)amide] conjugate [I.2] | 65 | 100 | 100 | 20 | 30 | – | – |
| Poly-L-glutamic acid [2-Amino-pentanoic acid (1-{{[({carbamoyl[2-(2,4-chlorophenyl)ethyl]carbamoyl}methyl)-(3,3-diphenylpropyl)carbamoyl]methyl}-[2-(2,4-dichlorophenyl)ethyl]carbamoyl}-2-methylpropyl)amide] conjugate [diglycil, reference compound] | 67 | 72 | 100 | – | – | 30^c h | 60^c h |
